Test results from publication PMC5090206, “Fluselenamyl: A Novel Benzoselenazole Derivative for PET Detection of Amyloid Plaques (Aβ) in Alzheimer’s Disease” (Scientific Reports, 2016).
pKd: −log10 of the molar value.

Target: AD homogenates (Homo sapiens, UniProt P05067)
Assay: Saturation binding of [18F]-9 with AD homogenates
Experimental: For assessing the ability of [^18F]-9 to bind Aβ plaques; binding assays with either AD homogenates or preformed Aβ1–42 aggregates were performed in 30 mM Tris, pH 7.4 buffer supplemented with 0.1% BSA[39]. Nonspecific binding was determined in the presence of 5 (1 μM) as a competitor.
Scientific Reports Version of August 4, 2016 other neurodegenerative diseases (SI, Figure 4A & 4B). Sections were visualized, processed, and analyzed using a Pascal confocal microscope.
Preparation of Human Brain Homogenates.
Well-established literature procedures were used for preparation of AD homogenates. 11,12 Grey matter was isolated from frozen postmortem frontal cortex tissue by dissection with a scalpel. […]
Binding assays were performed using previously described methods.11 Briefly, a fixed concentration (0.25 µM/well) of Aβ1–42 fibrils was incubated for 1 h at 37 °C with increasing concentrations of [18F]-9 (0.1 nM-15 nM) in 30 mM Tris-HCl pH 7.4, 0.1% BSA in a reaction volume of 150 µl. […] The exact hot:cold ([18F]-9 : 5) ratio was measured in each experiment by counting an aliquot of a sample (2 µl) of the radioligand preparation in a scintillation counter. Binding of [18F]-9 to human brain homogenates was assessed by incubating samples of insoluble fraction (1.25 µg insoluble protein/well) from AD subjects, with increasing concentrations of [18F]-9 (0.1nM-18 nM) for 1 h at 37 °C. Nonspecific binding was determined in parallel experiments in the presence of 5 (1 µM) as a competitor. […] Glass fiber filters containing the bound ligand were mixed with Optiphase Supermix scintillation cocktail (150µl; PerkinElmer) and counted immediately.
All data were obtained in triplicate and analyzed by curve fitting to a one-site binding model using nonlinear regression employing Graphpad Prism software (version 4.0) to determine Kd and Bmax values.
Bmax values were calculated in pmol/gram wet weight of brain tissue. […]

Chain of AD homogenates (P05067 672-711 limits assumed): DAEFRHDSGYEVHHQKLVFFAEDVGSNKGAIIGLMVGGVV

In the case of CN(C)c1ncc(/C=C\c2nc3cc(OCC[18F])ccc3[se]2)cn1 [[^18F]-9], the Bmax was 546 pmol/g wet wt, the “binding affinity higher than approved FDA tracers” value was 2–10 fold and the pKd (30 mM Tris pH 7.4, 0.1% BSA, one-site model) was 8.77.
